Data set [1] concerns the target TPH1 (Mus musculus, UniProt P17532). To be noted: WT mice fed a high fat diet; LP533401 100 mg/kg/day by gavage. The source says: (§1) Mice were housed under 12:12 light:dark cycle and chow and water were provided ad libitum. All animals were maintained according to NIH guidelines. The Htr2bflox/flox, Tph1flox/flox, and Villin-cre mice have been described previously (1). Alb-cre and aP2-cre mice were obtained from the Jackson Laboratory. For glucose tolerance tests mice were fasted overnight before i.p. injection of 2 g/kg body weight (BW) d-glucose in phosphate buffered saline (PBS) or 1 g/kg BW when mice were fed high fat diet. For pyruvate tolerance tests, mice were fasted overnight, injected i.p. with 2 g/kg BW sodium pyruvate in PBS. Glycerol tolerance test (4 g/kg BW) was performed after 4 h fasting. For insulin tolerance tests, mice were injected with 0.75 U/kg of insulin after 4 h fasting. Glucose was measured by tail vein bleeds at the indicated intervals using an ACCU-CHECK® glucometer. Measurement of free fatty acids (FFA) and glycerol were performed in plasma using a serum triglycerides determination kit (TR0100, Sigma) and a NEFA-HR(2) kit (WAKO Diagnostics). Plasma concentration of serotonin and glucagon were determined by Glucagon ELISA (Alpco, 48-GLUHU-E01) and Serotonin (Research) ELISA, (IBL-America, IB89540). Hyperinsulinemic-euglycemic clamp was performed in the University of Massachusetts Mouse Phenotyping Center, University of Massachusetts Medical School. […]

The subject of data set [2] is WT mice. The data set is described as follows: Plasma levels of glycerol and FFA in mice. It is filed as in vivo. The source says: (§2) All animals were maintained according to NIH guidelines.
In data set [3] the test system is WT mice. The data set is described as follows: Insulin tolerance test. It is filed as in vivo.
Description: as §1

Data set [4] relates to WT mice. As to the kind of experiment: Glucose tolerance test. It is filed as in vivo.
Description: as §1

Data set [5] deals with WT mice. The data set is described as follows: Pyruvate tolerance test (gluconeogenesis). It is filed as in vivo.
Description: as §1

The conditions of data set [6]: reference 24 (Liu et al. 2008); cited from earlier work.
For data set [7], the system named is epididymal fat pads. As to the kind of experiment: In vitro lipolysis of isolated fat pads. In kind it is cell-based, mouse. As for the experimental part:
(§3) In vitro lipolysis assay was performed as described (4). Briefly, epididymal fat pads were isolated and washed several times in Hank's Balanced Salt Solution (HBSS) (Sigma). Tissue pieces (˜25 mg) were incubated in Dulbecco's Modified Eagle's Medium (DMEM) medium (Invitrogen) containing 2% fatty acid free bovine serum albumin (Sigma) at 37° C. for 1 h. After this preincubation, the fat explants were transferred into identical, fresh medium containing serotonin (Sigma) or 10 μM forskolin as a positive control and incubated further for the indicated time-points at 37° C. Afterwards, aliquots of medium were taken for measurements of FFAs and glycerol using available kits (NEFA-HR(2), WAKO Diagnostics; serum triglycerides determination kit, TR0100, Sigma) and tissue was lysed with RIPA buffer for subsequent Western blot analysis or in TRIZOL® (Invitrogen) for gene expression analysis.

Data set [8] is described as follows: Plasma serotonin concentration in mice implanted with serotonin-releasing pellets. In kind it is in vivo. To be noted: WT mice, subcutaneous serotonin releasing pellets.
Description: as §2
This was done by implanting subcutaneously serotonin releasing pellets in WT mice. These pellets increased circulating levels of serotonin approximately two-fold (FIG. 5C).

The test system of data set [9] is WT mice. As to the kind of experiment: Glycerol tolerance test in WT mice implanted with serotonin-releasing pellets. In kind it is in vivo. The settings on record: WT mice implanted with serotonin pellets vs placebo controls.
Description: as §2

The test system of data set [10] is hormone sensitive lipase (HSL). As to the kind of experiment: Western blot of lipolytic enzymes in fat explants stimulated with serotonin. It is filed as cell-based, mouse. The settings on record: 50 μM serotonin, Htr2b-dependent. The protocol:
as §3
Western blotting was performed according to standard procedures. Frozen tissues or cells were homogenized and lysed with RIPA buffer. Membranes were blocked and then incubated overnight with primary antibody in TBST-5% BSA, followed by incubation with appropriate HRP-conjugated secondary antibody. Signals were visualized with ECL. […]
(Immunoblotting shows a protein as a band on a membrane.)

Data set [11] relates to primary hepatocytes. As to the kind of experiment: In vitro glucose production in primary hepatocytes. It is filed as cell-based, mouse. To be noted: for conversion of glycerol to glucose in hepatocytes: primary hepatocytes, indicated doses of serotonin or 100 nM glucagon. As for the experimental part: Production of glucose was assessed in primary, freshly isolated, attached hepatocytes. Briefly, cells were platted on 12 well plate format (200,000 cells per well). After isolation, the cells were allowed to attach and recover for 6 h in Williams E medium containing 10% fetal calf serum. Then they were washed and starved for 1 h in Dulbecco's Modified Eagle's DMEM without glucose and phenol red but with 2 mM L-glutamate and 0.5% BSA (D5030, Sigma). Then the cells were switched to the same medium or the same medium containing 10 mM glycerol and stimulated with the indicated substances for 6 h. Glucose concentration was determined in the medium using Amplex Red Glucose/Glucose Oxidase Assay Kit, (Invitrogen, A22189). Glucose production from glycerol was determined by subtracting glucose produced by the cells incubated without glycerol from this incubated with glycerol.

Where [12] appears, read: WT mice fed a high fat diet, fasted for 4 h, LP533401 100 mg/kg/day.
Setting [13] is: WT mice fed a normal diet, compared with Tph1gutΔ/Δ mice.
Where [14] appears, read: mice fed a high fat diet, LP533401 100 mg/kg/day.
Where [15] appears, read: Htr2b-deficient fat pad explants, 50 μM serotonin or 1 μM isoproterenol.
The mark [16] stands for this setting: fed WT mice, subcutaneous serotonin releasing pellets.
Where [17] appears, read: epididymal fat pads treated with increasing amounts of serotonin.

TPH1, sequence (P17532 whole entry): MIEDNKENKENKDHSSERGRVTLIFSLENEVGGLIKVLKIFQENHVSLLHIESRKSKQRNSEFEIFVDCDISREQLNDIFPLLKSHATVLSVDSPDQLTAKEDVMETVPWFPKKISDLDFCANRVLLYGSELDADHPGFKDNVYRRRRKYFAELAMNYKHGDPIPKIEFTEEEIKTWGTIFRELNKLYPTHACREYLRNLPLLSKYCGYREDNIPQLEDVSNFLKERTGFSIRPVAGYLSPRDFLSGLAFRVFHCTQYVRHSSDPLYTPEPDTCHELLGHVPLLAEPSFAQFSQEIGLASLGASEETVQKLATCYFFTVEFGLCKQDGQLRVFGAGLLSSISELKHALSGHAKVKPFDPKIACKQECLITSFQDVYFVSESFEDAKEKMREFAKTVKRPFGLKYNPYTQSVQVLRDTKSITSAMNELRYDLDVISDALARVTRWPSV

Take `Nc1nc(OC(c2ccc(-c3cccc(F)c3)cc2)C(F)(F)F)cc(-c2ccc(C[C@H](N)C(=O)O)cc2)n1` (stereo partly drawn) [LP533401]: the “reduction of circulating serotonin levels” value in data set [1] is listed as 80%. In [2] (setting [12]), the FFAs circulating levels entry was “normalization” and the glycerol circulating levels result is “decrease”. In data set [2] (WT mice fed a normal diet), the FFA levels result was “decreased” and the glycerol levels entry is “decreased”. Moreover, the insulin tolerance entry in [3] (setting [13]) was “improved”. Moreover, in data set [3] (setting [14]), the insulin sensitivity entry was “normalized”. Also, in [4] (setting [13]), the glucose tolerance entry is reported as “improved”. Besides, in data set [4] (setting [14]), the glucose tolerance result is on record as “significantly improved”. In addition, in data set [5] (WT mice fed a normal diet), the gluconeogenesis rate result is listed as “decreased”. In addition, in data set [5] (setting [14]), the gluconeogenesis result is “significantly improved”. Also, the “crossing of the blood-brain barrier” value in [6] is on record as “does not cross efficiently the blood-brain barrier”.

In the case of `CC(C)NCC(O)c1ccc(O)c(O)c1` (stereo not drawn) [isoproterenol], in [7] (setting [15]), the “release of FFAs” value was “favored equally well” and the release of glycerol result is “favored equally well”.

In the case of `NCCc1c[nH]c2ccc(O)cc12` [serotonin, 5-hydroxytryptamine], the lipolysis entry in data set [2] (WT mice implanted with serotonin pellets, fasted for 4 h) is “further enhanced”. Besides, in [2] (setting [16]), the “circulating levels of FFAs” value is “significant increase” and the “circulating levels of glycerol” value was “significant increase”. The “increase of circulating levels of serotonin” value in data set [8] is recorded as “approximately two-fold”. In addition, in data set [9], the “blood glucose levels after glycerol” value was “to a higher level than in controls”. In addition, in data set [7] (setting [15]), the “release of FFAs” value is given as “failed to enhance” and the release of glycerol entry is given as “failed to enhance”. In [7] (setting [17]), the “release of FFAs” value is “significantly increased” and the release of glycerol result is given as “significantly increased”. Moreover, the “phosphorylation of hormone sensitive lipase (HSL) on serine residues 563 and 660” value in data set [10] is given as “favored”. Also, in data set [11] (Htr2bΔ/Δ hepatocytes, 50 μM serotonin), the “glucose production from glycerol” value is “could not induce”. For the same compound, the “conversion of glycerol to glucose in hepatocytes” value in [11] was “stimulated”.

In the case of glucagon, in [11], the “conversion of glycerol to glucose in hepatocytes” value is given as “stimulated”.

The values above are taken from patent US9150521B2, “Methods of preventing and treating diabetes by inhibiting serotonin synthesis” (The Trustees of Columbia University in the City of New York, priority 2012, dated 2015).
